Results from patent publication US10532991B2 (TAIPEI MEDICAL UNIVERSITY, priority 2018, dated 2020).

Experiments:
[1] = Human liver microsome stability; format: in vitro ADME; settings: human liver microsomes, 1 μM test compound, 37° C.; CLint = k/P
[2] = in vivo; cited from earlier work

SMILES	CLint (intrinsic clearance) [1]	area under the curve (AUC) [2]	t1/2 [2]
C[C@]12CC[C@H]3[C@@H](CCC4=CC(=O)CC[C@@]43C)[C@@H]1CC[C@@H]2O [Testosterone, testosterone, reference compound]	0.0727 mL/min/mg Protein		
[2H]C([2H])([2H])Oc1cc2c(cc1OC([2H])([2H])[2H])C1CC(=O)C(CC(C)C)CN1CC2 (centres unmarked) [deutetrabenazine]		542 ng·h/mg	8.6 h
COc1cc2c(cc1OC)C1CC(=O)C(CC(C)C)CN1CC2 (centres unmarked) [tetrabenazine]		261 ng·h/mg	4.8 h
